# Results: US20090156518A1, “STABLE PHARMACEUTICAL COMPOSITION COMPRISING BETA-LACTAM ANTIBIOTIC AND BUFFER” (priority 2006, published 2009)
# Assay: amounts of β-lactam antibiotic, β-lactamase inhibitor (C18 reverse-phase LC, UV-VIS) and aminoglycoside (HPLC-ELSD) in solution over time
# Assay type: physicochemical
smiles,measurement,setting,value
CO/N=C(\C(=O)N[C@@H]1C(=O)N2C(C(=O)O)=C(CSc3nc(=O)c(=O)[nH]n3C)CS[C@H]12)c1csc(N)n1 [Ceftriaxone sodium],amount of component as percentage with respect to the amount at the initial time,"Example 7: ceftriaxone sodium 4 g, sulbactam sodium 1 g, gentamicin sulfate 80 mg, citrate pH 6.75, 200 mL water, room temperature (22° C.), Time 0 h",97.01%
same,amount of component as percentage with respect to the amount at the initial time,"Example 7: ceftriaxone sodium 4 g, sulbactam sodium 1 g, gentamicin sulfate 80 mg, citrate pH 6.75, 200 mL water, room temperature (22° C.), Time 1 h",100.3%
same,amount of component as percentage with respect to the amount at the initial time,"Example 7: ceftriaxone sodium 4 g, sulbactam sodium 1 g, gentamicin sulfate 80 mg, citrate pH 6.75, 200 mL water, room temperature (22° C.), Time 2 h",96.40%
same,amount of component as percentage with respect to the amount at the initial time,"Example 7: ceftriaxone sodium 4 g, sulbactam sodium 1 g, gentamicin sulfate 80 mg, citrate pH 6.75, 200 mL water, room temperature (22° C.), Time 4 h",99.01%
same,amount of component as percentage with respect to the amount at the initial time,"Example 7: ceftriaxone sodium 4 g, sulbactam sodium 1 g, gentamicin sulfate 80 mg, citrate pH 6.75, 200 mL water, room temperature (22° C.), Time 6 h",98.91%
same,amount of component as percentage with respect to the amount at the initial time,"Example 7: ceftriaxone sodium 4 g, sulbactam sodium 1 g, gentamicin sulfate 80 mg, citrate pH 6.75, 200 mL water, room temperature (22° C.), Time 8 h",99.53%
same,amount of component as percentage with respect to the amount at the initial time,"Example 8: freeze-dried ceftriaxone sodium, tazobactam sodium, gentamicin sulfate, citrate pH 6.75, 2.5% fructose, 7 days 0° C., in 100 mL water, Time 0 h",98.75%
same,amount of component as percentage with respect to the amount at the initial time,"Example 8: freeze-dried ceftriaxone sodium, tazobactam sodium, gentamicin sulfate, citrate pH 6.75, 2.5% fructose, 7 days 0° C., in 100 mL water, Time 1 h",100.1%
same,amount of component as percentage with respect to the amount at the initial time,"Example 8: freeze-dried ceftriaxone sodium, tazobactam sodium, gentamicin sulfate, citrate pH 6.75, 2.5% fructose, 7 days 0° C., in 100 mL water, Time 2 h",99.97%
same,amount of component as percentage with respect to the amount at the initial time,"Example 8: freeze-dried ceftriaxone sodium, tazobactam sodium, gentamicin sulfate, citrate pH 6.75, 2.5% fructose, 7 days 0° C., in 100 mL water, Time 4 h",98.87%
same,amount of component as percentage with respect to the amount at the initial time,"Example 8: freeze-dried ceftriaxone sodium, tazobactam sodium, gentamicin sulfate, citrate pH 6.75, 2.5% fructose, 7 days 0° C., in 100 mL water, Time 6 h",99.27%
same,amount of component as percentage with respect to the amount at the initial time,"Example 8: freeze-dried ceftriaxone sodium, tazobactam sodium, gentamicin sulfate, citrate pH 6.75, 2.5% fructose, 7 days 0° C., in 100 mL water, Time 8 h",100.5%
same,amount of component as percentage with respect to the amount at the initial time,"Example 9: freeze-dried ceftriaxone sodium, citrate pH 6.75, 7 days 0° C., in 100 mL 5% fructose solution, Time 0 h",97.27%
same,amount of component as percentage with respect to the amount at the initial time,"Example 9: freeze-dried ceftriaxone sodium, citrate pH 6.75, 7 days 0° C., in 100 mL 5% fructose solution, Time 1 h",99.38%
same,amount of component as percentage with respect to the amount at the initial time,"Example 9: freeze-dried ceftriaxone sodium, citrate pH 6.75, 7 days 0° C., in 100 mL 5% fructose solution, Time 2 h",99.95%
same,amount of component as percentage with respect to the amount at the initial time,"Example 9: freeze-dried ceftriaxone sodium, citrate pH 6.75, 7 days 0° C., in 100 mL 5% fructose solution, Time 4 h",97.81%
same,amount of component as percentage with respect to the amount at the initial time,"Example 9: freeze-dried ceftriaxone sodium, citrate pH 6.75, 7 days 0° C., in 100 mL 5% fructose solution, Time 6 h",99.03%
same,amount of component as percentage with respect to the amount at the initial time,"Example 9: freeze-dried ceftriaxone sodium, citrate pH 6.75, 7 days 0° C., in 100 mL 5% fructose solution, Time 8 h",98.51%
same,amount of component as percentage with respect to the amount at the initial time,"Example 19: ceftriaxone sodium 2 g, sulbactam sodium 2 g, gentamicin sulfate 160 mg, citrate pH 6.75, 200 mL water, room temperature, Time 0 h",97.01%
same,amount of component as percentage with respect to the amount at the initial time,"Example 19: ceftriaxone sodium 2 g, sulbactam sodium 2 g, gentamicin sulfate 160 mg, citrate pH 6.75, 200 mL water, room temperature, Time 1 h",100.3%
same,amount of component as percentage with respect to the amount at the initial time,"Example 19: ceftriaxone sodium 2 g, sulbactam sodium 2 g, gentamicin sulfate 160 mg, citrate pH 6.75, 200 mL water, room temperature, Time 2 h",96.40%
same,amount of component as percentage with respect to the amount at the initial time,"Example 19: ceftriaxone sodium 2 g, sulbactam sodium 2 g, gentamicin sulfate 160 mg, citrate pH 6.75, 200 mL water, room temperature, Time 4 h",99.01%
same,amount of component as percentage with respect to the amount at the initial time,"Example 19: ceftriaxone sodium 2 g, sulbactam sodium 2 g, gentamicin sulfate 160 mg, citrate pH 6.75, 200 mL water, room temperature, Time 6 h",98.91%
same,amount of component as percentage with respect to the amount at the initial time,"Example 19: ceftriaxone sodium 2 g, sulbactam sodium 2 g, gentamicin sulfate 160 mg, citrate pH 6.75, 200 mL water, room temperature, Time 8 h",99.53%
same,amount of component as percentage with respect to the amount at the initial time,"Example 20: ceftriaxone sodium 2 g, tazobactam sodium 2 g, gentamicin sulfate 160 mg, citrate pH 6.75, 200 mL water, room temperature, Time 0 h",98.75%
same,amount of component as percentage with respect to the amount at the initial time,"Example 20: ceftriaxone sodium 2 g, tazobactam sodium 2 g, gentamicin sulfate 160 mg, citrate pH 6.75, 200 mL water, room temperature, Time 1 h",100.1%
same,amount of component as percentage with respect to the amount at the initial time,"Example 20: ceftriaxone sodium 2 g, tazobactam sodium 2 g, gentamicin sulfate 160 mg, citrate pH 6.75, 200 mL water, room temperature, Time 2 h",99.97%
same,amount of component as percentage with respect to the amount at the initial time,"Example 20: ceftriaxone sodium 2 g, tazobactam sodium 2 g, gentamicin sulfate 160 mg, citrate pH 6.75, 200 mL water, room temperature, Time 4 h",98.87%
same,amount of component as percentage with respect to the amount at the initial time,"Example 20: ceftriaxone sodium 2 g, tazobactam sodium 2 g, gentamicin sulfate 160 mg, citrate pH 6.75, 200 mL water, room temperature, Time 6 h",99.27%
same,amount of component as percentage with respect to the amount at the initial time,"Example 20: ceftriaxone sodium 2 g, tazobactam sodium 2 g, gentamicin sulfate 160 mg, citrate pH 6.75, 200 mL water, room temperature, Time 8 h",100.5%
